{
  "source": "patent US20170223976A1",
  "about": "“MODIFIED MILK POWDER CONTAINING 1,5-ANHYDRO-D-GLUCITOL” (NIHON STARCH CO., LTD., priority 2015, published 2017)",
  "key": {"PC12 cells [1]": {"system": "PC12 cells", "test": "Determination of neurite outgrowth rate in PC12 cells (image count)", "assay_type": "cell-based", "conditions": "NGF added section (100 ng/mL), 96 hours", "description": "PSG-1 belongs to an immunoglobulin super family which includes some having the function of promoting neurogenesis. Then, the influence of 1,5-AG upon neuritogenesis was investigated. This was evaluated in a test system using PC12 cells which are generally used for the evaluation of neuritogenesis.\nPC12 cells (Lot No. 48, Lot No. 51) (RIKEN cell bank, material 1)\nDMEM medium prepared by adding 0.1% of FBS, 0.1% of HS, 1 ng/mL NGF and 1% of penicillin-streptomycin\nPC12 cells were initiated in a T-75 flask by using a growth medium to be cultured in a CO2 incubator (5% CO2, 37° C., moistening). Medium exchange was carried out every 2 days, the cells were collected when 80% confluence was reached, and cells having a passage number of 2 were used in this test. Stated more specifically, after the cells were washed with D-PBS (−), the cells were separated by using 0.05% trypsin, and a growth medium was added to neutralize trypsin. Then, the supernatant was removed by centrifugation (180 g, 5 minutes), a growth medium was added to stir the cells, the number of the cells was counted by using a corpuscle calculating board, and a growth medium was used to achieve a target concentration (2.0×10^3 cells/100 μL).\n(§1) A test was carried out at five concentrations (1.6, 8, 40, 200 and 1,000 μg/mL) of 1,5-AG. Stated more specifically, a 1,5-AG aqueous solution having a concentration of 100 mg/mL was diluted with water to prepare 100 times-concentrated solutions having concentrations of 0.16, 0.8, 4, 20 and 100 mg/mL. These 100 times-concentrated solutions were each added to a test medium in a ratio of 1/100 to achieve final concentrations of 1.6, 8, 40, 200 and 1,000 μg/mL and sterilized with a filter to be used in the test. As a negative control, water was added to a medium in a ratio of 1/100 and sterilized with a filter to be used in the test. As a positive control, a test medium containing a 100 ng/mL nerve growth factor (NGF) was used.\n(§2) A growth medium was used to adjust the cells to a concentration of 2.0×10^3 cells/100 μL/well, and the cells were scattered in a collagen-coated 96-well plate to be cultured in a CO2 incubator (5% CO2, 37° C., moistening) for 24 hours. After culture, the medium was replaced by a sample-containing test medium (100 μL), and the cells were cultured in a CO2 incubator for 96 hours. After the end of culture, an image of the cells in each well was taken with a phase difference microscope and used for the measurement of nuetrite outgrowth rate, and nuclei and cytoplasms were fluorescent dyed by using a neurite outgrowth staining kit to measure the number of living cells and the amount of neurite outgrowth. These procedures were carried out five times each.\nBased on the image taken above, the total number of cells, the number of cells showing the same or higher neurite outgrowth than the cell length and the number of cells showing neurites having a length 2 times or more than the cell length were measured from the image of the cells. The percentage (%) of cells showing neurite outgrowth was calculated from the measurement values."}, "PC12 cells [2]": {"system": "PC12 cells", "test": "Fluorescence determination of number of living cells and amount of neurite outgrowth (neurite outgrowth staining kit)", "assay_type": "cell-based", "conditions": "NGF added section (100 ng/mL)", "description": "as §1, §2\nAfter the end of culture, the number of living cells and the amount of neurite outgrowth were determined by using a neurite outgrowth staining kit. Stated more specifically, after the medium was removed, 100 μL of a staining solution (prepared by diluting Cell Viability Indicator and Cell Membrane Stain attached to the kit with calcium magnesium-containing PBS 1,000 times) was added to each well to incubate the cells at 37° C. for 20 minutes. After incubation, the staining solution was removed, 100 μL of a background suppression solution (prepared by diluting the background suppression dye attached to the kit with calcium magnesium-containing PBS 100 times) was added to each well so as to measure fluorescence intensity with a micro plate reader (measurement of the number of living cells: excitation wavelength of 495 nm, fluorescence wavelength of 515 nm, measurement of the amount of neurite outgrowth: excitation wavelength of 555 nm, fluorescent wavelength of 565 nm)."}},
  "data": [
    {"substance": "NGF: positive control: a test medium containing a 100 ng/mL nerve growth factor (NGF) [reference compound]", "values": [
      {"measurement": "cells showing a neurite outgrowth rate of 1 time or more", "setting": "PC12 cells [1]", "result": 68.8, "unit": "%"},
      {"measurement": "cells showing a neurite outgrowth rate of 2 times or more", "setting": "PC12 cells [1]", "result": 54.5, "unit": "%"},
      {"measurement": "amount of neurite outgrowth per cell as compared with the non-added section", "setting": "PC12 cells [2]", "result": 183.1, "unit": "%"}
    ]}
  ]
}
